Laboratory results taken from patent US12611431B2, “Approach to sustained production and delivery of nitric oxide and S-nitrosothiols” (Albert Einstein College of Medicine, priority 2020, dated 2026).

What was measured:
[1] = NO release rate measured with a Sievers 280i nitric oxide analyzer; assay type: physicochemical
Description: NO release rates were measured using a Sievers 280i nitric oxide analyzer (GE Instruments, Boulder, CO). Samples were dispersed in 5 mL tryptic soy broth (TSB) or MH 14% w/v in TSB at room temperature. Release kinetics were analyzed using Sievers NOAnalysis software (GE Instruments) with 12 measurements per minute recorded for 280 total minutes.

[2] = tested on: Pseudomonas aeruginosa planktonic isolates (PA1 strain); experiment: Colony forming unit (CFU) assay, titration of nitrite dose with MH; assay type: cell-based; conditions: PA1, 6 hours at 37° C.; MH or nitrite (10 mM) alone
Description: An overnight-grown culture of the PA1 strain in TSB was diluted to 10^8 cells/mL based on McFarland equivalence turbidity standard No. 0.5 (Thermo Fisher Scientific) and then adjusted to 10^5 cells/mL in TSB. Suspensions were treated with MH, nitrite, and serial dilutions of nitrite from 10 mM to 1 μM combined with MH. Untreated bacteria were used as negative controls. Bacterial suspensions were mixed using a tube rotator to ensure uniform distribution of bacteria and then incubated at 37° C. for 6 hours. Suspensions were then diluted in PBS and plated on TSA. Bacterial viability was determined by counting the number of colonies established on an agar plate after overnight incubation at 37° C.

[3] = tested on: Pseudomonas aeruginosa biofilm, PA1 strain; experiment: Biofilm viability and volume by live/dead staining and CLSM, PA1 strain; assay type: cell-based; conditions: 6 hours, MH 14% w/v, nitrite 10 mM
Description: (§1) A culture of PA, grown overnight in TSB, was diluted to 10^8 cells/mL. The bacterial suspension was then adjusted to 10^5 cells/mL in TSB and inoculated into an 8 well LabTek II Chambered #15 Coverglass System (Thermo Fisher Scientific). The chamber system was incubated at 37° C. for 48 hours. The media was replenished after 24 hours to maintain bacterial viability.
(§2) Established biofilms were divided into four treatment groups: 1) negative control with untreated bacterial suspension, 2) MH, 3) nitrite (10 mM), and 4) MH administered with nitrite (10 mM). Bacteria were treated with the appropriate treatment solution, as above, for 6 hours under complete darkness at 37° C. followed by washing with PBS. Staining was performed using the BacLight LIVE/DEAD Bacterial Viability kit (Invitrogen, Carlsbad, CA). The LIVE/DEAD kit solution constituting Syto9 and propidium iodide was then applied to each well of the chamber slide system for 1 hour at room temperature in darkness. After incubation, each sample was rinsed with PBS and incubated in 10% buffered formalin for 20 minutes at room temperature in darkness. […]
(§3) Images of biofilms were taken using a TCS SP5 CLSM (Leica Microsystems, Wetzlar, Germany) configured to a 488-nm argon laser with a 63× objective. […] Volocity software (PerkinElmer, Waltham, MA) was used to quantify biofilm viability and biomass in each Z-stack.

[4] = tested on: Pseudomonas aeruginosa biofilm, ATCC 15692 strain; experiment: Biofilm viability and volume by live/dead staining and CLSM, ATCC 15692 strain; conditions: ATCC 15692 biofilm, 6 hours; MH 14% w/v, nitrite 10 mM, SNO-MP/B-MP 10 mg/mL
Description: as §1, §2, §3

[5] = over 280 minutes, nitrite 5 mM, MH 14% w/v, SNO-MP and blank-MP 5 mg/mL, TSB, room temperature

## O=NO [nitrite, sodium nitrite]
[1]; 280 minutes, neutral pH, nitrite 5 mM, MH 14% w/v, SNO-MP 5 mg/mL
  NO release curve, key points in words (FIG. 1): no NO production
[1]; nitrite 5 mM in tryptic soy broth, room temperature
  NO detected: less than 0.1 ppm
[1]; [5]
  NO release, mean: 0.004±0.001 ppm
  NO release, range: 0.003-0.009 ppm
[2]
  reduction in CFU versus controls: did not have a significant effect
[3]; SNO-MP 10 mg/mL
  reduction in biofilm volume relative to control: 43.9%
[3]; SNO-MP/B-MP 10 mg/mL
  reduction in live cells (cell viability) relative to control: did not significantly reduce
[4]
  reduction in live cells (cell viability) relative to control: did not significantly reduce
